Among the data in patent US6017918A, “Phenyl glycine compounds and methods of treating atherosclerosis and restenosis” (Warner-Lambert Company, priority 1999, dated 2000) are IC50 values, retold here.

“And” between values parts separate entries of the source, which are not always exact repeats. Identical values can stand only once. Bounds are passed on as bounds.

Assay [1] concerns apolipoprotein(a), [apo(a)], apolipoproteinB-100, [apoB-100], coupling reaction that generates Lp(a). In words: LPABC screen: lipoprotein(a) biochemical coupling assay, Lp(a) by ELISA. As to conditions: recombinant apo(a) + HepG2 conditioned media, 67 minutes, 37° C.; ^a = multiple tests. From the text:
The lipoprotein(a), [Lp(a)], biochemical coupling assay (LPABC) is used to characterize inhibitors of the apolipoprotein(a), [apo(a)], apolipoproteinB-100, [apoB-100], coupling reaction that generates Lp(a).
Protocol Conditioned media from 293 cells (ATCC CRL-1573), permanently transfected with an apo(a) 17-kringle cDNA expression construct (pcDNA-AMP, In Vitrogen, Carlsbad, Calif.) using standard molecular biology techniques, was used as a source of recombinant apo(a). The 293 cell conditioned media containing the recombinant apo(a) is diluted 1:3 with phosphate buffered saline (PBS) and 90 μL is pipetted into each well of a 96-well plate and placed into a 37° C. incubator for 10 minutes. Twenty microliters of a 0.3 to 50 μM solution of a compound of the present invention in PBS is added to the warmed plate. Ninety microliters of HepG2 (ATCC HB-8065) cell conditioned media diluted 1:3 with PBS is added to the apo(a)/compound mixture and mixed by pipetting up and down 5 times. The reaction is incubated for 67 minutes in a 37° C. incubator. A 100 μL aliquot of the reaction is removed and assayed for its Lp(a) content by an enzyme linked immunosorbent assay (ELISA).
Background: ELISA stands for enzyme-linked immunosorbent assay.

In assay [2] the test system is Lp(a) production (HepG2^K17 cells). Briefly: LPA3 screen: inhibition of Lp(a) production in HepG2^K17 cells, Lp(a) by ELISA. The format is cell-based. The settings on record: 8 h, Lp(a) normalized for total protein, ^a = multiple tests. As for the experimental part: The LPA3 screen is used to identify compounds that inhibit Lp(a) production. This screen employs permanently transfected HepG2 cells (HepG2^K17) that are generated using an apo(a) 17-kringle cDNA expression construct (pcDNA-AMP, In Vitrogen, Carlsbad, Calif.) in accordance with methods that are well-known in molecular biology.
HepG2^K17 cells are seeded in 96-well plates at a density of 75,000 cells per well in 0.25 mL of Dulbecco's Modified Eagle Media (DMEM) containing 10% fetal bovine serum (FBS). Seeded plates are incubated overnight in a 37° C., 5% CO2 /95% […] incubator. The media is removed, replaced with (1) fresh media, or (2) fresh media plus 0.3 to 50 μM of a compound of the present invention in 20 μL of PBS, and the plates returned to the incubator for 8 hours. After the additional 8 hours of incubation, Lp(a) is assayed in the media by ELISA. Cells are digested with 0.5N NaOH overnight and assayed for total protein. Lp(a) values are normalized for total protein content.

Take `CCOC(=O)C(NCc1ccccc1)c1cc(C(C)(C)C)c(O)c(C(C)(C)C)c1` (centres unmarked) [Example 5, Benzylamino-(3,5-di-tert-butyl-4-hydroxy-phenyl)-acetic acid ethyl ester]: the IC50 in assay [1] came to 10.3 µM; in assay [2], 76 µM.

As for `CCOC(=O)C(NCc1cccc([N+](=O)[O-])c1)c1cc(C(C)(C)C)c(O)c(C(C)(C)C)c1` (centres unmarked) [Example 50, (3,5-Di-tert-butyl-4-hydroxy-phenyl)-(3-nitro-benzylamino)-acetic acid ethyl ester], the IC50 in assay [1] was 46.7 µM; in assay [2], over 74 µM.

For `CCOC(=O)C(NCc1cc2c(cc1N)OCO2)c1cc(C(C)(C)C)c(O)c(C(C)(C)C)c1` (centres unmarked) [Example 31, [(6-Amino-benzo[1,3]dioxol-5-ylmethyl)-amino]-(3,5-di-tert-butyl-4-hydroxy-phenyl)-acetic acid ethyl ester], the IC50 is 21 µM in assay [1] and over 74 µM in assay [2].

Consider `CCOC(=O)C(NCc1ccccc1Cl)c1cc(C(C)(C)C)c(O)c(C(C)(C)C)c1` (centres unmarked) [Example 33, (2-Chloro-benzylamino)-(3,5-di-tert-butyl-4-hydroxy-phenyl)-acetic acid ethyl ester], for which the 50% inhibitory concentration (IC50) is 43.4 µM in assay [1] and over 74 µM in assay [2].

As for `CCOC(=O)C(NCc1cccc(O)c1)c1cc(C(C)(C)C)c(O)c(C(C)(C)C)c1` (centres unmarked) [Example 42, (3,5-Di-tert-butyl-4-hydroxy-phenyl)-(3-hydroxy-benzylamino)-acetic acid ethyl ester], the figures for the IC50 in assay [1] and in assay [2] were 68.4 µM and over 74 µM, respectively.

On to `CCOC(=O)C(NCc1ccccc1OC)c1cc(C(C)(C)C)c(O)c(C(C)(C)C)c1` (centres unmarked) [Example 44, (3,5-Di-tert-butyl-4-hydroxy-phenyl)-(2-methoxy-benzylamino)-acetic acid ethyl ester], for which the half-inhibitory concentration (IC50) in assay [1] was 54.3 µM; in assay [2], over 74 µM.

On to `CCOC(=O)C(NCc1cccc(C(F)(F)F)c1)c1cc(C(C)(C)C)c(O)c(C(C)(C)C)c1` (centres unmarked) [Example 48, (3,5-Di-tert-butyl-4-hydroxy-phenyl)-(3-trifluoromethyl-benzylamino)-acetic acid ethyl ester], for which the IC50 in assay [1] is 53.9 µM; in assay [2], over 74 µM.

On to `CCOC(=O)C(NCC1CCCCC1)c1cc(-c2ccccc2)c(O)c(-c2ccccc2)c1` (centres unmarked) [Example 11, (Cyclohexylmethyl-amino)-(2'-hydroxy-[1,1';3',1"]terphenyl-5'-yl)-acetic acid ethyl ester], for which the IC50 in assay [1] worked out at 60.2 µM.

For the compound `CCOC(=O)C(c1cc(C(C)(C)C)c(O)c(C(C)(C)C)c1)N1CCOCC1` (centres unmarked) [Example 54, (3,5-Di-tert-butyl-4-hydroxy-phenyl)-(N-morpholinyl)-acetic acid ethyl ester], the values for the half-maximal inhibitory concentration (IC50) in assay [1] and in assay [2] were 0.8 µM and 1.3 µM, respectively.

For the compound `CCOC(=O)C(NCc1ccc(OCCN(CC)CC)cc1)c1cc(C(C)(C)C)c(O)c(C(C)(C)C)c1` (centres unmarked) [Example 37, (3,5-Di-tert-butyl-4-hydroxy-phenyl)-[4-(2-diethylamino-ethoxy)-benzylamino]-acetic acid ethyl ester], the half-inhibitory concentration (IC50) in assay [1] stood at 29.6 µM.

Consider `CCOC(=O)C(NCc1ccncc1)c1cc(C(C)(C)C)c(O)c(C(C)(C)C)c1` (centres unmarked) [Example 3, (3,5-Di-tert-butyl-4-hydroxy-phenyl)-[(pyridin-4-ylmethyl)-amino]-acetic acid ethyl ester], for which the IC50 in assay [1] turned out to be 7.27 µM; in assay [2] it was 25.4 µM.

On to `CCOC(=O)C(NCC1CCCCC1)c1cc(C(C)(C)C)c(O)c(C(C)(C)C)c1` (centres unmarked) [Example 6, (Cyclohexylmethyl-amino)-(3,5-di-tert-butyl-4-hydroxy-phenyl)-acetic acid ethyl ester], for which the 50% inhibitory concentration (IC50) in assay [1] was 6.52 µM; in assay [2] it was over 74 µM.

Turning to `CCOC(=O)C(NCc1ccc(N)cc1)c1cc(C(C)(C)C)c(O)c(C(C)(C)C)c1` (centres unmarked) [Example 30, (4-Amino-benzylamino)-(3,5-di-tert-butyl-4-hydroxy-phenyl)-acetic acid ethyl ester], the IC50 in assay [1] was 62.6 µM; in assay [2] it was over 74 µM.

`CCOC(=O)C(NCc1ccc(O)cc1)c1cc(C(C)(C)C)c(O)c(C(C)(C)C)c1` (centres unmarked) [Example 43, (3,5-Di-tert-butyl-4-hydroxy-phenyl)-(4-hydroxy-benzylamino)-acetic acid ethyl ester] came in with a half-inhibitory concentration (IC50) in assay [2] of over 74 µM.

For `CCOC(=O)C(NCc1cc(OC)c(OC)c(OC)c1)c1cc(C(C)(C)C)c(O)c(C(C)(C)C)c1` (centres unmarked) [Example 15, (3,5-Di-tert-butyl-4-hydroxy-phenyl)-(3,4,5-trimethoxy-benzylamino)-acetic acid ethyl ester], the half-maximal inhibitory concentration (IC50) worked out at 10.3 µM in assay [1] and 4.6 µM in assay [2].

In the case of `CCOC(=O)C(NCc1ccc(O)c(OC)c1)c1cc(C(C)(C)C)c(O)c(C(C)(C)C)c1` (centres unmarked) [Example 49, (3,5-Di-tert-butyl-4-hydroxy-phenyl)-(4-hydroxy-3-methoxy-benzylamino)-acetic acid ethyl ester], the half-maximal inhibitory concentration (IC50) was 15 µM in assay [1] and over 74 µM in assay [2].

On to `CCOC(=O)C(NC1CCCCC1)c1cc(C(C)(C)C)c(O)c(C(C)(C)C)c1` (centres unmarked) [Example 8, (3,5-Di-tert-butyl-4-hydroxy-phenyl)-[(cyclohexyl)-amino]-acetic acid etyl ester], for which the half-maximal inhibitory concentration (IC50) in assay [1] was 4.16 µM.

For the compound `CCOC(=O)C(NCc1ccsc1)c1cc(C(C)(C)C)c(O)c(C(C)(C)C)c1` (centres unmarked) [Example 46, (3,5-Di-tert-butyl-4-hydroxy-phenyl)-[(thiophen-3-ylmethyl)-amino]-acetic acid ethyl ester], the concentration for half-maximal inhibition (IC50) in assay [1] is 34.5 µM; in assay [2] it was over 74 µM.

In the case of `CCOC(=O)C(NCc1ccc(OC)cc1)c1cc(C(C)(C)C)c(O)c(C(C)(C)C)c1` (centres unmarked) [Example 32, (3,5-Di-tert-butyl-4-hydroxy-phenyl)-(4-methoxy-benzylamino)-acetic acid ethyl ester], the concentration for half-maximal inhibition (IC50) in assay [1] was 29.6 µM; in assay [2], over 74 µM.

For the compound `CCOC(=O)C(c1cc(C(C)(C)C)c(O)c(C(C)(C)C)c1)N1CCN(C)CC1` (centres unmarked) [Example 55, (3,5-Di-tert-butyl-4-hydroxy-phenyl)-[(N'-methyl)-N-piperazinyl]-acetic acid ethyl ester], the concentration for half-maximal inhibition (IC50) in assay [1] was 1.66 µM.

Take `CCOC(=O)C(NCc1ccoc1)c1cc(C(C)(C)C)c(O)c(C(C)(C)C)c1` (centres unmarked) [Example 41, (3,5-Di-tert-butyl-4-hydroxy-phenyl)-[(furan-3-ylmethyl)-amino]-acetic acid ethyl ester]: the IC50 in assay [1] worked out at 9.37 µM.

With `CCOC(=O)C(c1cc(C(C)(C)C)c(O)c(C(C)(C)C)c1)N(C)C` (centres unmarked) [Example 17, (3,5-Di-tert-butyl-4-hydroxy-phenyl)-dimethylamino-acetic acid ethyl ester], in assay [1], the IC50 was 0.65 µM.

`CCOC(=O)C(NCc1cccc(Cl)c1)c1cc(C(C)(C)C)c(O)c(C(C)(C)C)c1` (centres unmarked) [Example 10, (3-Chloro-benzylamino)-(3,5-di-tert-butyl-4-hydroxy-phenyl)-acetic acid ethyl ester]: the IC50 in assay [1] was 12.5 µM.

Turning to `CCNC(C(=O)OCC)c1cc(C(C)(C)C)c(O)c(C(C)(C)C)c1` (centres unmarked) [Example 51, (3,5-Di-tert-butyl-4-hydroxy-phenyl)-(ethylamino)-acetic acid ethyl ester], in assay [1], the 50% inhibitory concentration (IC50) came to 10.9 µM.

Turning to `CCOC(=O)C(NCC1CCCCC1)c1cc(C(C)CC)c(O)c(C(C)CC)c1` (centres unmarked) [Example 13, (Cyclohexylmethyl-amino)-(3,5-di-sec-butyl-4-hydroxy-phenyl)-acetic acid ethyl ester], the 50% inhibitory concentration (IC50) in assay [1] stood at 67.4 µM.

`CCOC(=O)C(NCc1cc(C(C)(C)C)c(O)c(C(C)(C)C)c1)c1cc(C(C)(C)C)c(O)c(C(C)(C)C)c1` (centres unmarked) [Example 18]: the IC50 in assay [1] came out at 75 µM.

For the compound `CC(C)(C)c1cc(C(NCc2cccnc2)C(=O)O)cc(C(C)(C)C)c1O` (centres unmarked) [Example 7, (3,5-Di-tert-butyl-4-hydroxy-phenyl)-[(pyridin-3-ylmethyl)-amino]-acetic acid], the IC50 in assay [1] turned out to be 62.2 µM.

Take `CCOC(=O)C(c1cc(C(C)(C)C)c(O)c(C(C)(C)C)c1)N(Cc1cccnc1)Cc1cccnc1` (centres unmarked) [Example 9, (Bis-pyridin-3-ylmethyl-amino)-(3,5-di-tert-butyl-4-hydroxy-phenyl)-acetic acid ethyl ester]: the IC50 in assay [1] was 1.34 µM and 1.3 µM.

As to `CCOC(=O)C(NCC1CC1)c1cc(C(C)(C)C)c(O)c(C(C)(C)C)c1` (centres unmarked) [Example 12, (Cyclopropylmethyl-amino)-(3,5-di-tert-butyl-4-hydroxy-phenyl)-acetic acid ethyl ester], the concentration for half-maximal inhibition (IC50) in assay [1] was determined as 12.2 µM.

In general, IC50 refers to the point on the concentration scale where inhibition reaches its midpoint.
